# pKd: −log10 of the molar value. Read-outs that look alike come from different tables or passages of the source. Where a SMILES comes first, the peptide text is derived from it. Bridges are numbered along the chain shown (N, C = ends). [ ]: non-standard residue; d: D form. The star is where a group is joined. Heptanoyl(6-Me) = CC(C)CCCCC(=O)*; dDab = NCC[C@@H](N)C(=O)O; Dab = NCC[C@H](N)C(=O)O
# Legend:
# [1] = tested on: Staphylococcus aureus ATCC 25923
# [2] = tested on: K. Pneumoniae GMCH11
# [3] = tested on: Vibrio parahaemolyticus ATCC17802
# [4] = tested on: K. Pneumoniae 1573
# [5] = tested on: P. aeruginosa ATCC 27853; test: Time-kill kinetics; format: cell-based; details: P. aeruginosa ATCC 27853, 2xMIC
# [6] = tested on: K. Pneumoniae GMCH10
# [7] = tested on: E. coli 14084
# [8] = tested on: P. aeruginosa PA2
# [9] = tested on: K. Pneumoniae GMCH12
# [10] = tested on: P. aeruginosa PA5
# [11] = tested on: K. Pneumoniae GMCH04
# [12] = tested on: K. Pneumoniae GMCH13
# [13] = tested on: K. Pneumoniae B8
# [14] = tested on: P. aeruginosa GMCH06
# [15] = tested on: Klebsiella pneumoniae ATCC 29665
# [16] = tested on: P. aeruginosa PA3
# [17] = tested on: E. coli 14504
# [18] = tested on: Acinetobacter baumannii ATCC 19606
# [19] = tested on: Klebsiella pneumoniae ATCC BAA1706
# [20] = tested on: Vibrio cholerae MTCC 3906
# [21] = tested on: E. coli 7932
# [22] = tested on: A. baumannii GMCH18
# [23] = tested on: E. coli 7534
# [24] = tested on: Klebsiella pneumoniae ATCC 700603
# [25] = tested on: E. coli 3185
# [26] = tested on: P. aeruginosa PA1
# [27] = tested on: A. baumannii AB2
# [28] = tested on: E. coli ATCC 25922; test: NPN uptake assay, outer membrane permeabilization; format: cell-based; details: E. coli ATCC 25922, 10 and 20 μg/ml, 1 h, compared with polymyxin B
# [29] = tested on: K. Pneumoniae 827
# [30] = tested on: K. Pneumoniae GMCH 16
# [31] = tested on: human embryonic kidney cell line (HEK293 ATCC CRL-1573); format: cell-based
# Protocol: (§1) 3-(4,5-dimethylthiazol-2-yl)-2,5-diphenyltetrazolium bromide (MTT) assay was employed to examine the cytotoxicity against human leukemic monocyte cell line (THP-1 ATCC TIB-202) and human embryonic kidney cell line (HEK293 ATCC CRL-1573) as explained by [Kaur et al. (2017)]. Toxicity of both compounds was compared with polymyxin B and colistin at concentrations ranging from 62.5 to1000 μg/ml.
# [32] = tested on: human leukemic monocyte cell line (THP-1 ATCC TIB-202); format: cell-based
# Protocol: as §1
# [33] = tested on: Escherichia coli ATCC 25922
# [34] = tested on: E. coli 9062
# [35] = tested on: Escherichia coli ATCC 35218
# [36] = tested on: A. baumannii GMCH 14
# [37] = tested on: A. baumannii GMCH05
# [38] = tested on: P. aeruginosa PA4
# [39] = tested on: Bacillus subtilis ATCC 6633
# [40] = tested on: E. coli 14363
# [41] = tested on: K. Pneumoniae 1428
# [42] = tested on: clinical MDR isolates (E. coli, K. pneumoniae, A. baumanii, P. aeruginosa); format: cell-based; details: in 25 of 31 clinical isolates
# [43] = tested on: P. aeruginosa PA6
# [44] = tested on: Pseudomonas aeruginosa ATCC 27853
# [45] = tested on: A. baumannii AB1
# [46] = tested on: Klebsiella pneumoniae ATCC- BAA 2146
# [47] = tested on: Enterococcus faecalis ATCC 51299
# [48] = tested on: E. coli 7210
# [49] = tested on: E. coli 13425
# [50] = tested on: LPS (E. coli strain 055:B5 origin); format: binding; details: read-out: Dissociation constant (Kd)
compound,measurement,setting,value
"CC(C)CCCCC(=O)N[C@@H](CCN)C(=O)N[C@H](C(=O)N[C@H](CCN)C(=O)N[C@H]1CCNC(=O)[C@H]([C@@H](C)O)NC(=O)[C@H](CCN)NC(=O)[C@H](CCN)NC(=O)[C@H]([C@@H](C)O)NC(=O)[C@@H](CC(C)C)NC(=O)[C@H](CCN)NC1=O)[C@@H](C)O [P1, polymyxin A2] ({Heptanoyl(6-Me)}-[Dab]T[dDab][Dab][Dab][dL]T[Dab][Dab]T; lactam 4-C)",MIC,[1]; ATCC 25923,>16 µg/mL
same,MIC,[2]; GMCH11,1 µg/mL
same,MIC,[3],1 µg/mL
same,MIC,[4]; 1573,0.5 µg/mL
same,time to kill,[5],4 h
same,MIC,[6]; GMCH10,1 µg/mL
same,MIC,[7]; 14084,0.25 µg/mL
same,MIC,[8]; PA2,1 µg/mL
same,MIC,[9]; GMCH12,0.5 µg/mL
same,MIC,[10]; PA5,1 µg/mL
same,MIC,[11]; GMCH04,0.25 µg/mL
same,MIC,[12]; GMCH13,0.5 µg/mL
same,MIC,[13]; B8,0.5 µg/mL
same,MIC,[14]; GMCH06,0.5 µg/mL
same,MIC,[15]; ATCC 29665,0.5 µg/mL
same,MIC,[16]; PA3,1 µg/mL
same,MIC,[17]; 14504,0.25 µg/mL
same,MIC,[18]; ATCC 19606,0.5 µg/mL
same,MIC,[19]; ATCC BAA1706,0.5 µg/mL
same,MIC,[20],>16 µg/mL
same,MIC,[21]; 7932,0.25 µg/mL
same,MIC,[22]; GMCH18,0.25 µg/mL
same,MIC,[23]; 7534,0.25 µg/mL
same,MIC,[24]; ATCC 700603,1 µg/mL
same,MIC,[25]; 3185,0.25 µg/mL
same,MIC,[26]; PA1,1 µg/mL
same,MIC,[27]; AB2,1 µg/mL
same,NPN uptake (fluorescence intensity),[28],slightly higher NPN uptake
same,MIC,[29]; 827,0.5 µg/mL
same,MIC,[30]; GMCH 16,0.5 µg/mL
same,IC50,[31],> 1000 µg/mL
same,IC50,[32],approximately 1000 μg/ml
same,MIC,[33]; ATCC 25922,1 µg/mL
same,MIC,[34]; 9062,0.25 µg/mL
same,MIC,[35]; ATCC 35218,0.25 µg/mL
same,MIC,[36]; GMCH 14,0.5 µg/mL
same,MIC,[37]; GMCH05,1 µg/mL
same,MIC,[38]; PA4,1 µg/mL
same,MIC,[39]; ATCC 6633,16 µg/mL
same,MIC,[40]; 14363,0.25 µg/mL
same,MIC,[41]; 1428,1 µg/mL
same,fold less MIC than the other polymyxins,[42],2–4 fold
same,MIC,[43]; PA6,1 µg/mL
same,MIC,[44]; ATCC 27853,0.5 µg/mL
same,MIC,[45]; AB1,0.5 µg/mL
same,MIC,[46]; BAA 2146,0.5 µg/mL
same,MIC,[47]; ATCC 51299,>16 µg/mL
same,MIC,[48]; 7210,0.25 µg/mL
same,MIC,[49]; 13425,0.25 µg/mL
"polymyxin B [PB, reference compound]",MIC,[1]; Staphylococcus aureus ATCC 25923,16 µg/mL
same,MIC,[2],1 µg/mL
same,MIC,[3],1 µg/mL
same,MIC,[4],1 µg/mL
same,time to kill,[5],2 h
same,MIC,[6],1 µg/mL
same,MIC,[7],0.5 µg/mL
same,MIC,[8],2 µg/mL
same,MIC,[9],1 µg/mL
same,MIC,[10],2 µg/mL
same,MIC,[11],0.5 µg/mL
same,MIC,[12],1 µg/mL
same,MIC,[13],1 µg/mL
same,MIC,[14],1 µg/mL
same,MIC,[15]; Klebsiella pneumoniae ATCC 29665,1 µg/mL
same,MIC,[16],2 µg/mL
same,MIC,[17],1 µg/mL
same,MIC,"[18]; Acinetobacter baumannii ATCC 19606, Ca-MHB, 37°C, 20–24 h",1 µg/mL
same,MIC,[19]; Klebsiella pneumoniae ATCC BAA1706,1 µg/mL
same,MIC,[20],8 µg/mL
same,MIC,[21],1 µg/mL
same,MIC,[22],1 µg/mL
same,MIC,[23],1 µg/mL
same,MIC,[24]; Klebsiella pneumoniae ATCC 700603,1 µg/mL
same,MIC,[25],0.5 µg/mL
same,MIC,[26],2 µg/mL
same,MIC,[27],1 µg/mL
same,MIC,[29],1 µg/mL
same,MIC,[30],0.5 µg/mL
same,IC50,"[32]; THP-1 cells, MTT, 62.5 to 1000 μg/ml",125 µg/mL
same,pKd,[50],5.47
same,MIC,[33]; Escherichia coli ATCC 25922,1 µg/mL
same,MIC,[34],1 µg/mL
same,MIC,[35]; Escherichia coli ATCC 35218,0.5 µg/mL
same,MIC,[36],1 µg/mL
same,MIC,[37],1 µg/mL
same,MIC,[38],1 µg/mL
same,MIC,[39]; Bacillus subtilis ATCC 6633,4 µg/mL
same,MIC,[40],0.5 µg/mL
same,MIC,[41],2 µg/mL
same,MIC,[43],2 µg/mL
same,MIC,[44]; Pseudomonas aeruginosa ATCC 27853,1 µg/mL
same,MIC,[45],1 µg/mL
same,MIC,[46]; Klebsiella pneumoniae ATCC- BAA 2146,1 µg/mL
same,MIC,[47]; Enterococcus faecalis ATCC 51299,>16 µg/mL
same,MIC,[48],1 µg/mL
same,MIC,[49],1 µg/mL
